Data as given in patent publication US9399626B2, “2-thiopyrimidinones” (Pfizer Inc., priority 2011, dated 2016).
Where a name gives a salt, the structure may show the parent alone.

target: T1, MPO (purified from human polynuclear leukocytes) (Homo sapiens, UniProt P05164); test: MPO Amplex Red Activity Assay; format: biochemical; settings: Table 1, 2 μM H2O2, pH 7.4
T1 construct: purified from human polynuclear leukocytes; purchased Calbiochem/EMD Biosciences; host or cells: human polynuclear leukocytes (natural source)
Procedure, shortened: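 Potency is given as kinact/KI: kobs values from 600 s progress curves, minus the uninhibited rate, are fit against inhibitor concentration. Reactions use 2 μM H2O2, 30 μM Amplex Red, pH 7.4 phosphate buffer with NaCl, DTPA and 2% DMSO, started with […] human MPO. Readout is resorufin fluorescence, catalase background subtracted.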

T1 sequence (P05164 279-745 limits assumed): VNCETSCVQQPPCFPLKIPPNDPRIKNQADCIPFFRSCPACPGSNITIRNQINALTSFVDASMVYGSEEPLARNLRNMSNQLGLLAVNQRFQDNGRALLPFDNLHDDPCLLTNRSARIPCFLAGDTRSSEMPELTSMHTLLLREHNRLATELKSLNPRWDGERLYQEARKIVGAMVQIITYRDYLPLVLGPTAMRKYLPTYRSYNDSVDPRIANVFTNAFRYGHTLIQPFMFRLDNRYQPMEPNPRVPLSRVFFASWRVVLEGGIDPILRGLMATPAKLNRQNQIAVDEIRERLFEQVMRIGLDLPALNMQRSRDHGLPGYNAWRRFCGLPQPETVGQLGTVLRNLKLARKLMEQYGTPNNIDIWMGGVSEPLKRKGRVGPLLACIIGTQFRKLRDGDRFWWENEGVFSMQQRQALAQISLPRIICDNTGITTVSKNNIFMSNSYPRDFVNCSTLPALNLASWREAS
T1 sequence (P05164 165-273 limits assumed): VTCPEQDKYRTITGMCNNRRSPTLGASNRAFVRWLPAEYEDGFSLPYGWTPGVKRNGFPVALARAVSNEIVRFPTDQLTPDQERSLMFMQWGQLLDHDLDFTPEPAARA

Row | MPO kinact/Ki | SMILES
1 | 4530 1/s per M | COc1cc(OC)c(-c2cc(=O)[nH]c(=S)n2CCN=C(N)N)cc1OC [Example 138, 2-{2-[4-oxo-2-thioxo-6-(2,4,5-trimethoxyphenyl)-3,4-dihydropyrimidin-1(2H)-yl]ethyl}guanidine hydrochloride]
2 | 1450 1/s per M | COCCn1c(-c2cccc(OC(F)(F)F)c2)cc(=O)[nH]c1=S [Example 340]
3 | 5350 1/s per M | COc1ccc(-c2cc(=O)[nH]c(=S)n2CC(C)CO)c(OC)c1 (centres unmarked) [Example 195, 6-(2,4-dimethoxyphenyl)-1-(3-hydroxy-2-methylpropyl)-2-thioxo-2,3-dihydropyrimidin-4(1H)-one]
4 | 8590 1/s per M | COCCn1c(-c2cc(C#N)ccc2OC)cc(=O)[nH]c1=S [Example 171, 4-methoxy-3-[3-(2-methoxyethyl)-6-oxo-2-thioxo-1,2,3,6-tetrahydropyrimidin-4-yl]benzonitrile]
5 | 1810 1/s per M | COCCn1c(-c2cccc(OC)c2)cc(=O)[nH]c1=S [Example 293, 1-(2-methoxyethyl)-6-(3-methoxyphenyl)-2-thioxo-2,3-dihydropyrimidin-4(1H)-one]
6 | 745 1/s per M | COc1ccc(-c2cc(=O)[nH]c(=S)n2CCCSC)c(OC)c1 [Example 227, 6-(2,4-dimethoxyphenyl)-1-[3-(methylthio)propyl]-2-thioxo-2,3-dihydropyrimidin-4(1H)-one]
7 | 1460 1/s per M | COc1ccc(-c2cc(=O)[nH]c(=S)n2CC2CCCN2C(=N)N)c(OC)c1 (centres unmarked) [Example 258, 2-{[6-(2,4-dimethoxyphenyl)-4-oxo-2-thioxo-3,4-dihydropyrimidin-1(2H)-yl]methyl}pyrrolidine-1-carboximidamide trifluoroacetate]
8 | 4230 1/s per M | COCCn1c(-c2ccccc2O)cc(=O)[nH]c1=S [Example 288, 6-(2-hydroxyphenyl)-1-(2-methoxyethyl)-2-thioxo-2,3-dihydropyrimidin-4(1H)-one]
9 | 6330 1/s per M | COCCn1c(-c2ccc(OC)c(OC)c2)cc(=O)[nH]c1=S [Example 331, 6-(3,4-dimethoxyphenyl)-1-(2-methoxyethyl)-2-thioxo-2,3-dihydropyrimidin-4(1H)-one]
10 | 4370 1/s per M | COCCn1c(-c2ccccc2OC(C)C)cc(=O)[nH]c1=S [Example 328, 6-(2-isopropoxyphenyl)-1-(2-methoxyethyl)-2-thioxo-2,3-dihydropyrimidin-4(1H)-one]
11 | 1420 1/s per M | COCCn1c(-c2ccc(OC)c(F)c2)cc(=O)[nH]c1=S [Example 315, 6-(3-fluoro-4-methoxyphenyl)-1-(2-methoxyethyl)-2-thioxo-2,3-dihydropyrimidin-4(1H)-one]
12 | 429 1/s per M | COCCn1c(-c2cnc(N(C)C)nc2)cc(=O)[nH]c1=S [Example 314, 2′-(dimethylamino)-3-(2-methoxyethyl)-2-thioxo-2,3-dihydro-4,5′-bipyrimidin-6(1H)-one]
13 | 5970 1/s per M | COc1cc(OC)c(-c2cc(=O)[nH]c(=S)n2CCO)cc1F [Example 184, 6-(5-fluoro-2,4-dimethoxyphenyl)-1-(2-hydroxyethyl)-2-thioxo-2,3-dihydropyrimidin-4(1H)-one]
14 | 4000 1/s per M | COc1ncc(C)cc1-c1cc(=O)[nH]c(=S)n1CCCN [Example 45, 1-(3-aminopropyl)-6-(2-methoxy-5-methylpyridin-3-yl)-2-thioxo-2,3-dihydropyrimidin-4(1H)-one trifluoroacetate]
15 | 11400 1/s per M | COCCn1c(-c2cc3ccccc3cc2OC)cc(=O)[nH]c1=S [Example 117, 1-(2-methoxyethyl)-6-(3-methoxy-2-naphthyl)-2-thioxo-2,3-dihydropyrimidin-4(1H)-one]
16 | 1060 1/s per M | COCCn1c(-c2cccn2C)cc(=O)[nH]c1=S [Example 281, 1-(2-methoxyethyl)-6-(1-methyl-1H-pyrrol-2-yl)-2-thioxo-2,3-dihydropyrimidin-4(1H)-one]
17 | 15000 1/s per M | COCCn1c(-c2cc(OC)ccc2OC)cc(=O)[nH]c1=S [Example 9, 6-(2,5-dimethoxyphenyl)-1-(2-methoxyethyl)-2-thioxo-2,3-dihydropyrimidin-4(1H)-one]
18 | 6370 1/s per M | COCCn1c(-c2coc3ccccc23)cc(=O)[nH]c1=S [Example 305, 6-(1-benzofuran-3-yl)-1-(2-methoxyethyl)-2-thioxo-2,3-dihydropyrimidin-4(1H)-one]
19 | 15400 1/s per M | COc1ccc(OC)c(-c2cc(=O)[nH]c(=S)n2CCCN)c1 [Example 87, 1-(3-aminopropyl)-6-(2,5-dimethoxyphenyl)-2-thioxo-2,3-dihydropyrimidin-4(1H)-one hydrochloride]
20 | 3260 1/s per M | CNC(=O)CCn1c(-c2ccc(OC)cc2OC)cc(=O)[nH]c1=S [Example 216, 3-[6-(2,4-dimethoxyphenyl)-4-oxo-2-thioxo-3,4-dihydropyrimidin-1(2H)-yl]-N-methylpropanamide]
21 | 1910 1/s per M | COc1ccc(-c2cc(=O)[nH]c(=S)n2Cc2cccnc2)c(OC)c1 [Example 231, 6-(2,4-dimethoxyphenyl)-1-(pyridin-3-ylmethyl)-2-thioxo-2,3-dihydropyrimidin-4(1H)-one]
22 | 14500 1/s per M | COc1ccc(OC)c(-c2cc(=O)[nH]c(=S)n2CCCN=C(N)N)c1 [Example 131, 2-{3-[6-(2,5-dimethoxyphenyl)-4-oxo-2-thioxo-3,4-dihydropyrimidin-1(2H)-yl]propyl} guanidine trifluoroacetate]
23 | 604 1/s per M | C=CCn1c(-c2ccc(OC)cc2OC)cc(=O)[nH]c1=S [Example 266, 1-allyl-6-(2,4-dimethoxyphenyl)-2-thioxo-2,3-dihydropyrimidin-4(1H)-one]
24 | 3330 1/s per M | COCCn1c(-c2ccc3cc[nH]c3c2)cc(=O)[nH]c1=S [Example 301, 6-(1H-indol-6-yl)-1-(2-methoxyethyl)-2-thioxo-2,3-dihydropyrimidin-4(1H)-one]
25 | 9820 1/s per M | COc1ccc(-c2cc(=O)[nH]c(=S)n2CCOC(C)=O)c(OC)c1 [Example 222, 2-[6-(2,4-dimethoxyphenyl)-4-oxo-2-thioxo-3,4-dihydropyrimidin-1(2H)-yl]ethyl acetate]
26 | 6510 1/s per M | O=c1cc(-c2cccc3c2OCC3)n(CCO)c(=S)[nH]1 [Example 16, 6-(2,3-dihydro-1-benzofuran-7-yl)-1-(2-hydroxyethyl)-2-thioxo-2,3-dihydropyrimidin-4(1H)-one]
27 | 1850 1/s per M | CCOC(=O)C(C)n1c(-c2ccc(OC)cc2OC)cc(=O)[nH]c1=S (centres unmarked) [Example 239, ethyl 2-[6-(2,4-dimethoxyphenyl)-4-oxo-2-thioxo-3,4-dihydropyrimidin-1(2H)-yl]propanoate]

same assay, conditions: Table 1A, 2 μM H2O2, pH 7.4

Row | MPO kinact/Ki | SMILES
28 | 9060 1/s per M | COc1ccc(OC)c(-c2cc(=O)[nH]c(=S)n2CC(=O)NCCN)c1 [Example 370, N-(2-aminoethyl)-2-[6-(2,5-dimethoxyphenyl)-4-oxo-2-thioxo-3,4-dihydropyrimidin-1(2H)-yl]acetamide]
29 | 5230 1/s per M | COc1ccc(-c2cc(=O)[nH]c(=S)n2CCNCCO)c(OC)c1 [Example 383, 6-(2,4-dimethoxyphenyl)-1-{2-[(2-hydroxyethyl)amino]ethyl}-2-thioxo-2,3-dihydropyrimidin-4(1H)-one]
